Assay results from patent US20240300932A1, “N-PHENYLIMINE DERIVATIVE AND PREPARATION METHOD AND USE THEREOF” (Guizhou University, priority 2023, published 2024).

Columns and labels:
[1] = system: Trifoliumre pensL.; assay: Post-emergence herbicidal activity test (stem and leaf spray, pot culture); type: in vivo; conditions: 3 weeks after spraying
Procedure, shortened: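 Rates of 10, 5 and 2.5 g/mu were applied in a single spray-tower treatment to 2–3-leaf plants, thinned to 10 per pot. Formulation: acetone solution, Tween 80, 1.5 L/ha methyl oleate synergist. Weed response assessed after 3 further greenhouse weeks; mean of three experiments.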

[2] = system: Setaria viridis; assay: as above; type: in vivo; conditions: 3 weeks after spraying
Procedure, shortened: (§1)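 Foliar spray, 2–3-leaf stage, 10/5/2.5 g/mu; acetone/Tween 80 + methyl oleate 1.5 L/ha. Greenhouse 3 wk, 20–30 °C. Score: fresh-wt control, grade 5 ≥85% … grade 0 <5%.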

[3] = system: Abutilon theophrasti; assay: as above; type: in vivo; conditions: 3 weeks after spraying
Procedure, shortened: as §1

[4] = system: Amaranthus retroflexus; assay: as above; type: in vivo; conditions: 3 weeks after spraying
Procedure, shortened: as §1

[5] = system: Echinochloa crusgalli; assay: as above; type: in vivo; conditions: 3 weeks after spraying
Procedure, shortened: as §1

[6] = system: Portulaca oleracea; assay: as above; type: in vivo; conditions: 3 weeks after spraying
Procedure, shortened: as §1

Compound | Post-emergence herbicidal activity, Trifoliumre pensL. (grade) ([1]; dosage 2.5 g/mu) | Post-emergence herbicidal activity, Trifoliumre pensL. (grade) ([1]; dosage 5 g/mu) | Post-emergence herbicidal activity, Trifoliumre pensL. (grade) ([1]; dosage 10 g/mu) | Post-emergence herbicidal activity, S. viridis (grade) ([2]; dosage 2.5 g/mu) | Post-emergence herbicidal activity, S. viridis (grade) ([2]; dosage 5 g/mu) | Post-emergence herbicidal activity, S. viridis (grade) ([2]; dosage 10 g/mu) | Post-emergence herbicidal activity, A. theophrasti (grade) ([3]; dosage 2.5 g/mu) | Post-emergence herbicidal activity, A. theophrasti (grade) ([3]; dosage 5 g/mu) | Post-emergence herbicidal activity, A. theophrasti (grade) ([3]; dosage 10 g/mu) | Post-emergence herbicidal activity, A. retroflexus (grade) ([4]; dosage 2.5 g/mu) | Post-emergence herbicidal activity, A. retroflexus (grade) ([4]; dosage 5 g/mu) | Post-emergence herbicidal activity, A. retroflexus (grade) ([4]; dosage 10 g/mu) | Post-emergence herbicidal activity, E. crusgalli (grade) ([5]; dosage 2.5 g/mu) | Post-emergence herbicidal activity, E. crusgalli (grade) ([5]; dosage 5 g/mu) | Post-emergence herbicidal activity, E. crusgalli (grade) ([5]; dosage 10 g/mu) | Post-emergence herbicidal activity, P. oleracea (grade) ([6]; dosage 2.5 g/mu) | Post-emergence herbicidal activity, P. oleracea (grade) ([6]; dosage 5 g/mu) | Post-emergence herbicidal activity, P. oleracea (grade) ([6]; dosage 10 g/mu) | melting point
O=C(COc1cc(N2C(=O)C3=C(CCCC3)C2=O)c(F)cc1Cl)c1cc(F)cc(F)c1 [Compound C5, 2-(4-chloro-2-fluoro-5-(2-oxo-2-(3,5-difluorophenyl)ethoxy)phenyl)-4,5,6,7-tetrahydro-1H-isoindole-1,3(2H)-dione] | 5 (Grade 5: the growth control rate is greater than or equal to 85%) | 5 (Grade 5: the growth control rate is greater than or equal to 85%) | 5 (Grade 5: the growth control rate is greater than or equal to 85%) | 2 (Grade 2: the growth control rate is greater than or equal to 20% and less than 40%) | 3 (Grade 3: the growth control rate is greater than or equal to 40% and less than 60%) | 4 (Grade 4: the growth control rate is greater than or equal to 60% and less than 85%) | 5 (Grade 5: the growth control rate is greater than or equal to 85%) | 5 (Grade 5: the growth control rate is greater than or equal to 85%) | 5 (Grade 5: the growth control rate is greater than or equal to 85%) | 5 (Grade 5: the growth control rate is greater than or equal to 85%) | 5 (Grade 5: the growth control rate is greater than or equal to 85%) | 5 (Grade 5: the growth control rate is greater than or equal to 85%) | 1 (Grade 1: the growth control rate is greater than or equal to 5% and less than 20%) | 2 (Grade 2: the growth control rate is greater than or equal to 20% and less than 40%) | 3 (Grade 3: the growth control rate is greater than or equal to 40% and less than 60%) | 5 (Grade 5: the growth control rate is greater than or equal to 85%) | 5 (Grade 5: the growth control rate is greater than or equal to 85%) | 5 (Grade 5: the growth control rate is greater than or equal to 85%) | 135 to 137 °C
O=C(COc1cc(N2C(=O)C3=C(CCCC3)C2=O)c(F)cc1Cl)c1ccc(F)cc1 [Compound C8, 2-(4-chloro-2-fluoro-5-(2-oxo-2-(4-fluorophenyl)ethoxy)phenyl)-4,5,6,7-tetrahydro-1H-isoindole-1,3(2H)-dione] | 5 (Grade 5: the growth control rate is greater than or equal to 85%) | 5 (Grade 5: the growth control rate is greater than or equal to 85%) | 5 (Grade 5: the growth control rate is greater than or equal to 85%) | 2 (Grade 2: the growth control rate is greater than or equal to 20% and less than 40%) | 3 (Grade 3: the growth control rate is greater than or equal to 40% and less than 60%) | 4 (Grade 4: the growth control rate is greater than or equal to 60% and less than 85%) | 5 (Grade 5: the growth control rate is greater than or equal to 85%) | 5 (Grade 5: the growth control rate is greater than or equal to 85%) | 5 (Grade 5: the growth control rate is greater than or equal to 85%) | 5 (Grade 5: the growth control rate is greater than or equal to 85%) | 5 (Grade 5: the growth control rate is greater than or equal to 85%) | 5 (Grade 5: the growth control rate is greater than or equal to 85%) | 1 (Grade 1: the growth control rate is greater than or equal to 5% and less than 20%) | 2 (Grade 2: the growth control rate is greater than or equal to 20% and less than 40%) | 3 (Grade 3: the growth control rate is greater than or equal to 40% and less than 60%) | 5 (Grade 5: the growth control rate is greater than or equal to 85%) | 5 (Grade 5: the growth control rate is greater than or equal to 85%) | 5 (Grade 5: the growth control rate is greater than or equal to 85%) | 126 to 128 °C
O=C(COc1cc(N2C(=O)C3=C(CCCC3)C2=O)c(F)cc1Cl)c1ccc([N+](=O)[O-])cc1 [Compound C9, 2-(4-chloro-2-fluoro-5-(2-oxo-2-(4-nitrophenyl)ethoxy)phenyl)-4,5,6,7-tetrahydro-1H-isoindole-1,3(2H)-dione] | 5 (Grade 5: the growth control rate is greater than or equal to 85%) | 5 (Grade 5: the growth control rate is greater than or equal to 85%) | 5 (Grade 5: the growth control rate is greater than or equal to 85%) | 2 (Grade 2: the growth control rate is greater than or equal to 20% and less than 40%) | 3 (Grade 3: the growth control rate is greater than or equal to 40% and less than 60%) | 4 (Grade 4: the growth control rate is greater than or equal to 60% and less than 85%) | 5 (Grade 5: the growth control rate is greater than or equal to 85%) | 5 (Grade 5: the growth control rate is greater than or equal to 85%) | 5 (Grade 5: the growth control rate is greater than or equal to 85%) | 5 (Grade 5: the growth control rate is greater than or equal to 85%) | 5 (Grade 5: the growth control rate is greater than or equal to 85%) | 5 (Grade 5: the growth control rate is greater than or equal to 85%) | 1 (Grade 1: the growth control rate is greater than or equal to 5% and less than 20%) | 2 (Grade 2: the growth control rate is greater than or equal to 20% and less than 40%) | 3 (Grade 3: the growth control rate is greater than or equal to 40% and less than 60%) | 5 (Grade 5: the growth control rate is greater than or equal to 85%) | 5 (Grade 5: the growth control rate is greater than or equal to 85%) | 5 (Grade 5: the growth control rate is greater than or equal to 85%) | 148 to 150 °C
